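Results reflect a 48-hour exposure of cells in 96-well plates to compound at five concentrations. At the TGI there is no net growth.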
tested on: SK-MEL-28 melanoma; assay: NCI anticancer screen, dose series, 48 h

Row | Structure (SMILES) | TGI
1 | Nc1[nH]nc2nc3ccc(C(F)(F)F)cc3nc12 | 42.6 µM
2 | CCC(=O)ONC(=O)Cn1ccc([N+](=O)[O-])n1 | > 100 µM
3 | O=C(CN(c1ccccc1)c1ccccc1)n1nnc2ccccc21 | > 100 µM
4 | COc1cc(OC)c(C2c3cc4c(cc3OC(N3CCCC3)C2C)OCO4)c(OC)c1 (configuration not stated) | 46.2 µM
5 | Cc1ccc(S(=O)(=O)C(C#N)c2nc3ccccc3nc2-n2ccnc2)cc1 (configuration not stated) | > 100 µM
6 | C=C1CN2CC(=C)CN(C1)CS(=O)(=O)N1CC(=C)CN(CC(=C)C1)S(=O)(=O)N1CC(=C)CN(CC(=C)C1)S(=O)(=O)C2 | 45.6 µM
7 | C=C(Cl)C(C)(Cl)CCC(Br)C(C)(C)Cl (configuration not stated) | 48.1 µM
8 | COC(=O)C1CCCN1C(=O)C(Cc1cn(S(=O)(=O)c2ccc(C)cc2)cn1)NC(=O)OC(C)(C)C (configuration not stated) | > 100 µM
9 | Nc1ccc(S2(c3ccc(N)cc3)C=C(c3ccccc3)C(c3ccccc3)=C2)cc1 | > 100 µM
10 | O=C1C(=Cc2ccccc2O)N=C(c2ccccc2)N1n1c(-c2ccccc2)nc2ccccc2c1=O | > 100 µM
11 | CC(=O)O[C@]12CCCCCC1C1(O)C(O)CCCC[C@H]12 (some centres not stated) | > 100 µM
12 | COC(=O)C1=C(C)NC(C)=C(C(=O)OC)C1c1nc2sccn2c1[N+](=O)[O-] | > 100 µM
13 | O=c1c(C(c2ccc(Cl)cc2)c2c(O)c3ccccc3n(-c3ccccc3)c2=O)c(O)c2ccccc2n1-c1ccccc1 | > 100 µM
14 | CCNC(=O)Nc1cccc(NC(=O)NCC)n1 | > 100 µM

tested on: SF-295 CNS; assay: NCI anticancer screen, dose series, 48 h

Row | Structure (SMILES) | TGI
15 | COc1ccc(C2OC(c3ccncc3)=NN2C)cc1OC (configuration not stated) | > 100 µM
16 | COc1c(C(C)C)cc2c3c1OC(=O)[C@@]31CCCC(C)(C)C1CC2 (some centres not stated) | 78.7 µM
17 | COc1ccc(N2C(=O)CSC2c2c[nH]c3ccccc23)cc1 (configuration not stated) | > 100 µM
18 | COC1C=COC2(C)Oc3c(C)c(O)c4c(O)c(c(C5SCCS5)c(O)c4c3C2=O)NC(=O)C(C)=C/C=C\C(C)C2OC(C)(C)OC(C2C)C(C)C(OC(C)=O)C1C (configuration not stated) | 28.7 µM
19 | OCc1ccc(C2CC(c3ccco3)=NN2c2ccccc2)o1 (configuration not stated) | > 100 µM
20 | COc1ccc(C2COc3cc(O)c(O)cc3C2)cc1 (configuration not stated) | 205 µM
21 | CCCCN=C(c1ccccc1)N1CCOCC1 | > 100 µM
22 | CSc1ncnc2c1ncn2CCC#N | > 100 µM
23 | CCOC(=O)c1ccc(C)c(N=NN(C)C)c1 | > 100 µM
24 | CC(C)CC(O)P(=O)(O)O (configuration not stated) | > 100 µM
25 | COc1cc2c3c(c1OC)C1(C=CC(=O)C=C1)C[C@H]3N(C)CC2 | > 100 µM
26 | CC(C)(Cl)C(Br)CCC(=CCCl)CBr (mixture of isomers) | 13 µM
27 | O=NN(CCCl)C(=O)NC1CCC(O)CC1 (configuration not stated) | > 80.2 µM
28 | Nc1[nH]nc2nc3ccc(C(F)(F)F)cc3nc12 | 97.3 µM
29 | CCC(=O)ONC(=O)Cn1ccc([N+](=O)[O-])n1 | > 100 µM
30 | Cc1ccc(O)c(-c2cscn2)c1 | > 100 µM
31 | O=C(CN(c1ccccc1)c1ccccc1)n1nnc2ccccc21 | > 100 µM
32 | CSc1sc2ccccc2[s+]1 | > 100 µM
33 | COc1cc(OC)c(C2c3cc4c(cc3OC(N3CCCC3)C2C)OCO4)c(OC)c1 (configuration not stated) | 36.1 µM
34 | Cc1ccc(S(=O)(=O)C(C#N)c2nc3ccccc3nc2-n2ccnc2)cc1 (configuration not stated) | > 100 µM
35 | C=C1CN2CC(=C)CN(C1)CS(=O)(=O)N1CC(=C)CN(CC(=C)C1)S(=O)(=O)N1CC(=C)CN(CC(=C)C1)S(=O)(=O)C2 | > 100 µM
36 | C=C(Cl)C(C)(Cl)CCC(Br)C(C)(C)Cl (configuration not stated) | 88.6 µM
37 | Nc1ccc(S2(c3ccc(N)cc3)C=C(c3ccccc3)C(c3ccccc3)=C2)cc1 | > 100 µM
38 | O=C1C(=Cc2ccccc2O)N=C(c2ccccc2)N1n1c(-c2ccccc2)nc2ccccc2c1=O | 56.8 µM
39 | CC(=O)O[C@]12CCCCCC1C1(O)C(O)CCCC[C@H]12 (some centres not stated) | > 100 µM
40 | COC(=O)C1=C(C)NC(C)=C(C(=O)OC)C1c1nc2sccn2c1[N+](=O)[O-] | > 100 µM
41 | O=c1c(C(c2ccc(Cl)cc2)c2c(O)c3ccccc3n(-c3ccccc3)c2=O)c(O)c2ccccc2n1-c1ccccc1 | > 100 µM
42 | CCNC(=O)Nc1cccc(NC(=O)NCC)n1 | > 100 µM

tested on: A549 NSCLC; assay: NCI anticancer screen, dose series, 48 h

Row | Structure (SMILES) | TGI
43 | COc1ccc(C2OC(c3ccncc3)=NN2C)cc1OC (configuration not stated) | > 100 µM
44 | COc1c(C(C)C)cc2c3c1OC(=O)[C@@]31CCCC(C)(C)C1CC2 (some centres not stated) | 60.1 µM
45 | COC1C=COC2(C)Oc3c(C)c(O)c4c(O)c(c(C5SCCS5)c(O)c4c3C2=O)NC(=O)C(C)=C/C=C\C(C)C2OC(C)(C)OC(C2C)C(C)C(OC(C)=O)C1C (configuration not stated) | 22.6 µM
46 | OCc1ccc(C2CC(c3ccco3)=NN2c2ccccc2)o1 (configuration not stated) | > 100 µM
47 | COc1ccc(C2COc3cc(O)c(O)cc3C2)cc1 (configuration not stated) | 188 µM
48 | CSc1ncnc2c1ncn2CCC#N | > 100 µM
49 | CCOC(=O)c1ccc(C)c(N=NN(C)C)c1 | > 100 µM
50 | CC(C)CC(O)P(=O)(O)O (configuration not stated) | > 100 µM
51 | CC1CCCC(CC(=O)O)(CC(=O)O)C1 (configuration not stated) | > 100 µM
52 | COc1cc2c3c(c1OC)C1(C=CC(=O)C=C1)C[C@H]3N(C)CC2 | > 100 µM
53 | CC(C)(Cl)C(Br)CCC(=CCCl)CBr (mixture of isomers) | 32.8 µM
54 | O=NN(CCCl)C(=O)NC1CCC(O)CC1 (configuration not stated) | > 100 µM
55 | Nc1[nH]nc2nc3ccc(C(F)(F)F)cc3nc12 | > 100 µM
56 | CCC(=O)ONC(=O)Cn1ccc([N+](=O)[O-])n1 | > 100 µM
57 | Cc1ccc(O)c(-c2cscn2)c1 | > 100 µM

Reference: PubChem BioAssay (NCI)
